Source: the NIST ThermoML archive (doi:10.1021/je301123j)

Assay: xn = mol fraction of the nth substance listed
Conditions: for surface tension liquid-gas: Ring tensiometer; for mass density / speed of sound / viscosity: 100 kPa, Liquid

CCN1CCCC1=O [1-ethyl-2-pyrrolidinone] + OCCN(CCO)CCO
Conditions	mass density [kg/m3]	speed of sound [m/s]	surface tension liquid-gas [mN/m]	viscosity [mPa·s]
293.15 K, x1 = 0.1001	1112.5	1611.4	44.7	570.35
293.15 K, x1 = 0.2	1101.3	1598.1	43.4	312.31
293.15 K, x1 = 0.3	1089.95	1585.4	42	164.25
293.15 K, x1 = 0.4004	1077.59	1574.5	40.9	81.22
293.15 K, x1 = 0.5001	1066.06	1565.5	40.1	41.49
293.15 K, x1 = 0.6002	1053.3	1555.6	39.2	21.52
293.15 K, x1 = 0.7002	1040.32	1545.9	38.3	11.54
293.15 K, x1 = 0.8	1026.31	1536.1	37.8	6.382
293.15 K, x1 = 0.8998	1012.14	1525.5	36.9	3.627
293.15 K, x1 = 1	997.91	1513.2	36.5	2.132
303.15 K, x1 = 0.1001	1106.6	1588.7	43.9	252.99
303.15 K, x1 = 0.2	1095.17	1575.4	42.3	151.13
303.15 K, x1 = 0.3	1083.52	1562.2	41.3	85.6
303.15 K, x1 = 0.4004	1070.78	1548.9	40.2	46.14
303.15 K, x1 = 0.5001	1058.92	1538.5	39.2	25.54
303.15 K, x1 = 0.6002	1045.86	1526.5	38.6	14.29
303.15 K, x1 = 0.7002	1032.59	1514.2	37.5	8.268
303.15 K, x1 = 0.8	1018.3	1502.2	36.7	4.866
303.15 K, x1 = 0.8998	1003.86	1490.5	36	2.902
303.15 K, x1 = 1	989.34	1475	35.2	1.777
313.15 K, x1 = 0.1001	1100.7	1569.8	43	132.88
313.15 K, x1 = 0.2	1088.99	1555.1	41.6	82.06
313.15 K, x1 = 0.3	1076.98	1540.4	40.6	47.47
313.15 K, x1 = 0.4004	1063.92	1524.8	39.4	28.4
313.15 K, x1 = 0.5001	1051.74	1512.2	38.3	16.84
313.15 K, x1 = 0.6002	1038.43	1497.6	37.6	10.07
313.15 K, x1 = 0.7002	1024.86	1483.1	36.4	6.178
313.15 K, x1 = 0.8	1010.29	1468.6	35.8	3.794
313.15 K, x1 = 0.8998	995.57	1456.6	35	2.379
313.15 K, x1 = 1	980.76	1437.6	34.2	1.515
323.15 K, x1 = 0.1001	1094.74	1551.9	–	75.13
323.15 K, x1 = 0.2	1082.69	1534.9	–	46.57
323.15 K, x1 = 0.3	1070.36	1517.4	–	29.62
323.15 K, x1 = 0.4004	1057	1500.3	–	18.7
323.15 K, x1 = 0.5001	1044.54	1485.3	–	11.73
323.15 K, x1 = 0.6002	1030.97	1469.1	–	7.428
323.15 K, x1 = 0.7002	1017.11	1452.3	–	4.758
323.15 K, x1 = 0.8	1002.27	1435.5	–	3.06
323.15 K, x1 = 0.8998	987.27	1422.3	–	1.994
323.15 K, x1 = 1	972.16	1400.6	–	1.31
